Each structure is given as a SMILES string.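 Protocol summary: plate cells (96-well), add compound at 5 concentrations, incubate 48 h, interpolate endpoints linearly. The concentration for full growth arrest is given as TGI.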 Where a SMILES comes first, the peptide text is derived from it. The star is where a group is joined. Cbz = O=C(OCc1ccccc1)*

Common to all, as to experiment: NCI tumour cell line growth inhibition, 48 h
Experiment [1] concerns SN12C renal.
Experiment [2] has as its system U251 CNS.
The test system of experiment [3] is SW-620 colon.
The test system of experiment [4] is NCI/ADR-RES ovarian.
For experiment [5], the system named is NCI-H460 lung.
The test system of experiment [6] is HL-60(TB) leukemia.
The subject of experiment [7] is HOP-62 NSCLC.
Experiment [8] has as its system A549 NSCLC.
The test system of experiment [9] is MCF7 breast.
Experiment [10] deals with SNB-75 CNS.
The test system of experiment [11] is KM12 colon.
In experiment [12] the test system is OVCAR-4 ovarian.
Experiment [13] concerns LOX IMVI melanoma.
For experiment [14], the system named is RPMI-8226 leukemia.
In experiment [15] the test system is SR leukemia.
In experiment [16] the test system is HCC-2998 colon.
Experiment [17] relates to NCI-H226 lung.
The test system of experiment [18] is PC-3 prostate.
The subject of experiment [19] is HOP-92 NSCLC.
Experiment [20] deals with HCT-116 colon.

In the case of `c1cc(C2=NCCO2)c2ccsc2c1`, the TGI in experiment [1], in [2], in experiment [3], in experiment [4], in experiment [5] and in experiment [6] was above 100 µM in each case. For the same molecule, the TGI in experiment [7] was above 100 µM; in experiment [8], above 100 µM; in experiment [9], above 100 µM; in experiment [10], 99.1 µM; in experiment [11] it was above 100 µM; in [12] it was above 100 µM. In addition, the TGI in [13], in experiment [14], in experiment [15], in experiment [16], in [17] and in experiment [18] was above 100 µM throughout. In addition, the TGI in experiment [19] and in experiment [20] was above 100 µM throughout.
Take `N#Cc1sc2c(c1OC(=O)c1ccc(Cl)cc1Cl)c(=O)n(-c1ccccc1)c(=S)n2-c1ccccc1`: the TGI in [1] is 57.8 µM; in experiment [2], 75.8 µM; in experiment [3], 72.7 µM; in experiment [4], 50.3 µM; in [5] it was above 100 µM; in experiment [6] it was 46.7 µM. Besides, the TGI in [7] was 96.4 µM; in [8] it was above 100 µM; in experiment [9], 73.4 µM; in [10], above 100 µM; in experiment [11], 89.7 µM; in [12], 66.5 µM. Moreover, the TGI in experiment [13] is 39.8 µM; in [14], 60 µM; in [15] it was above 100 µM; in experiment [16], above 100 µM; in experiment [17] it was 66.8 µM; in experiment [18], above 100 µM. In addition, the TGI was found to be 68.9 µM in [19] and 39.2 µM in experiment [20].
As to `O=C1/C(=C/c2ccccc2)CCc2ccc([N+](=O)[O-])cc21`, the TGI in experiment [1], in [2], in [3], in experiment [4], in [5] and in experiment [6] was above 100 µM in each case. Besides, the TGI in experiment [7] was above 100 µM; in experiment [8] it was above 100 µM; in experiment [9], above 100 µM; in [10], above 74.6 µM; in experiment [11], above 100 µM; in [12], above 100 µM. Besides, the TGI in experiment [13] was above 100 µM; in experiment [14], 7.13 µM; in experiment [15], above 63.3 µM; in [16], above 100 µM; in experiment [17], above 100 µM; in experiment [18], above 100 µM. In addition, the TGI in [19] and in experiment [20] was above 100 µM throughout.
Consider `Cc1cccc2c(NCCN(C)C)c3cccc(C(=O)NCCN(C)C)c3nc12`, for which the TGI in [1] was 1.69 µM; in [2] it was 3.82 µM; in experiment [3] it was 7.78 µM; in experiment [4] it was 11.6 µM; in [5], 4.08 µM; in [6], 0.637 µM. Besides, the TGI in experiment [7] was 3.93 µM; in experiment [8], 29.2 µM; in experiment [9], 2.85 µM; in [10], 0.953 µM; in experiment [11] it was 1.04 µM; in experiment [12] it was above 100 µM. For the same molecule, the TGI in [13] came to 1.76 µM; in experiment [14], 0.21 µM; in [15], 0.319 µM; in experiment [16], 1.33 µM; in experiment [17] it was 5.68 µM; in experiment [18], 6.73 µM. Further, the TGI is 1.46 µM in [19] and 4.87 µM in experiment [20].
With `CCOc1cc(C2SCC(=O)N2c2ccc3c(c2)Oc2c(Cl)c4c(c(Cl)c2=N3)Oc2cc(N3C(=O)CSC3c3ccc(O)c(OCC)c3)ccc2N=4)ccc1O` (centres undefined), the TGI in [2], in experiment [3], in experiment [4], in experiment [5], in experiment [6] and in experiment [7] was above 100 µM throughout. The TGI is 83.4 µM in experiment [8]; above 100 µM in experiment [9]; 50.5 µM in [10]; above 100 µM in experiment [11]; above 100 µM in experiment [12]; above 100 µM in [13]. The TGI was above 100 µM in [14]; above 100 µM in experiment [15]; above 100 µM in [16]; 66.2 µM in experiment [17]; above 100 µM in experiment [18]; 59.1 µM in [19]. In [20], this molecule came in with a TGI of 41.4 µM.
Regarding `CN(C)c1ccc(C2CC(=O)CC(c3ccc(N(C)C)cc3)C23C(=O)NC(=S)NC3=O)cc1` (centres undefined), the TGI in experiment [1], in experiment [2], in experiment [3], in experiment [4], in experiment [5] and in experiment [6] was above 100 µM throughout. Moreover, the TGI in experiment [7] is 45.6 µM; in [8], above 100 µM; in experiment [9], above 100 µM; in experiment [10] it was 31.2 µM; in [11], above 100 µM; in [12], above 100 µM. Moreover, the TGI in experiment [13], in experiment [14], in experiment [15], in experiment [16], in [17] and in experiment [18] was above 100 µM each time. The TGI in experiment [19] and in experiment [20] was above 100 µM in each case.
On to `COCN1C(=N)C(C(=O)OC(C)(C)C)=C2C=C(O)C=CC21C` (centres undefined), for which the TGI was 73.9 µM in experiment [1]; 30.6 µM in [2]; 17.5 µM in experiment [3]; 69 µM in [4]; 44.9 µM in experiment [5]; 83.3 µM in [6]. The TGI in experiment [7] was 75.2 µM; in experiment [8], 34.9 µM; in experiment [9] it was 22.9 µM; in [10], 33.6 µM; in experiment [11], 30.5 µM; in [12], 26.6 µM. For the same molecule, the TGI in [13] was 26.5 µM; in experiment [14], above 100 µM; in experiment [15], above 100 µM; in [16], 40.5 µM; in experiment [17], 30.6 µM; in experiment [18], 30.6 µM. Further, the TGI in [19] worked out at 17.4 µM; in experiment [20] it was 20.7 µM.
On to `CCO[C@H]1O[C@@H]2OC3(C)CCC4[C@H](C)CCC([C@H]1C)[C@]42OO3` (some centres undefined), for which the TGI is above 100 µM in experiment [1]; above 100 µM in experiment [2]; above 100 µM in experiment [3]; above 100 µM in [4]; above 100 µM in experiment [5]; 13.2 µM in [6]. Besides, the TGI in experiment [7], in [8], in [9], in experiment [10], in experiment [11] and in [12] was above 100 µM each time. For the same molecule, the TGI in experiment [13], in experiment [14], in [15], in [16], in experiment [17] and in experiment [18] was above 100 µM throughout. For the same molecule, the TGI in [19] and in experiment [20] was above 100 µM throughout.
On to `COC(=O)C(CC(C)C)NC(=O)C(CCCN=C(N)N)NC(=O)OCc1ccccc1` (stereo not drawn) (Cbz-Arg-Leu-OMe; configuration not given here), for which the TGI in experiment [1], in experiment [2], in [3], in experiment [4], in experiment [5] and in [6] was above 100 µM each time. Also, the TGI in experiment [7], in experiment [8], in experiment [9], in experiment [10], in experiment [11] and in experiment [12] was above 100 µM throughout. The TGI in experiment [13], in experiment [14], in experiment [15], in [16], in experiment [17] and in experiment [18] was above 100 µM each time. Besides, the TGI in experiment [19] and in [20] was above 100 µM each time.
Take `CCOC(=O)[C@@H](NC(=O)OC(C)(C)C)[C@@H](O)C(=O)OCC`: the TGI in [1], in [2], in [3], in experiment [4], in [5] and in experiment [6] was above 100 µM throughout. In addition, the TGI in experiment [7], in [8], in [9], in [10], in [11] and in [12] was above 100 µM in each case. The TGI in [13], in experiment [14], in [15], in [16], in [17] and in [18] was above 100 µM throughout. For the same molecule, the TGI in [19] and in experiment [20] was above 100 µM in each case.
In the case of `O=C(O)c1ccccc1/C=C1/Cc2ccc3c(c2C1=O)CCC3`, the TGI in experiment [1] was above 100 µM; in [2], above 100 µM; in [3], above 100 µM; in experiment [4], above 100 µM; in experiment [5], above 100 µM; in [6], 48 µM. For the same molecule, the TGI in experiment [7], in [8], in experiment [9], in experiment [10], in experiment [11] and in [12] was above 100 µM in each case. Further, the TGI in [13] was 39.5 µM; in [14], 57.4 µM; in [15] it was 91.3 µM; in experiment [16], 72.1 µM; in [17], 90.8 µM; in experiment [18], above 100 µM. Also, the TGI is 80.8 µM in experiment [19] and above 100 µM in experiment [20].
As for `C=CCc1cccc2cc(C(=O)Nc3ccc(C)cc3)c(=N)oc12`, the TGI in [1], in [2], in experiment [3], in experiment [4], in experiment [5] and in [6] was above 100 µM each time. Further, the TGI in [7], in experiment [8], in [9], in [10], in experiment [11] and in experiment [12] was above 100 µM each time. For the same molecule, the TGI in [13], in experiment [14], in experiment [15], in experiment [16], in [17] and in experiment [18] was above 100 µM each time. In addition, the TGI in experiment [19] and in [20] was above 100 µM each time.
Regarding `CN(/N=C/c1ccc(Cl)c(Cl)c1)C1=NCCCCN1`, the TGI is above 100 µM in [1]; above 100 µM in experiment [2]; 38 µM in experiment [3]; above 100 µM in [4]; above 100 µM in [5]; 65.5 µM in experiment [6]. Besides, the TGI in experiment [7] was 35.4 µM; in [8] it was above 100 µM; in experiment [9] it was 54.3 µM; in experiment [10], above 100 µM; in experiment [11] it was 47.5 µM; in experiment [12] it was above 100 µM. Further, the TGI in [13] was 27.2 µM; in [14] it was 64 µM; in experiment [15], above 100 µM; in experiment [16], 63.9 µM; in [17], 39.2 µM; in experiment [18] it was above 100 µM. Further, the TGI in [19] is 49.6 µM; in experiment [20], 79.4 µM.
With `[N-]=[N+]=Nc1c(-c2ccccc2)c(=O)n(-c2ccccc2)c2ccccc12`, the TGI in experiment [1], in [2], in experiment [3], in [4], in [5] and in [6] was above 100 µM each time. Further, the TGI in [7], in experiment [8], in experiment [9], in experiment [10], in [11] and in experiment [12] was above 100 µM each time. For the same molecule, the TGI in experiment [13], in experiment [14], in experiment [15], in experiment [16], in experiment [17] and in experiment [18] was above 100 µM throughout. Moreover, the TGI in [19] and in experiment [20] was above 100 µM each time.

Source of the values: PubChem BioAssay (NCI).
